Results published in US6140317A, “Pyrrolopyrimidines and processes for their preparation” (Novartis AG, priority 1996, dated 2000).

Columns and labels:
BALB/MK cells = assay: Inhibition of the growth of BALB/MK (mouse keratinocyte) cells in vitro, methylene blue staining; assay type: cell-based; conditions: 72 h, incubated for three days
Procedure: In a known test method (see Meyer et al., Int. J. Cancer 43, 851 (1989)) the inhibitory action of the compounds of formula I is determined briefly as follows: BALB/MK cells (10 000/microtiter plate well) are transferred to 96-well microtiter plates. The test compounds (dissolved in DMSO) are added in a series of concentrations (dilution series), so that the final concentration of DMSO is no greater than 1% (v/v). After the addition, the plates are incubated for three days, during which time the control cultures without test compound are able to undergo at least three cell division cycles. The growth of the MK cells is measured by means of methylene blue staining: after the incubation the cells are fixed with glutaraldehyde, washed with water and stained with 0.05% methylene blue. After a washing step, the stain is eluted with 3% HCl and the optical density per well of the microtitre plate is measured using a Titertek multiskan at 665 nm. IC50 values are determined by means of a computer-aided system using the formula
IC50 =[(ODtest -ODstart)/(ODcontrol
The IC50 value in those experiments is defined as that concentration of the test compound in question which results in a 50% decrease in the number of cells in comparison with the control without inhibitor.
The growth of BALB/MK cells in the presence of compounds of formula I is tested in accordance with the procedure described above. […]

[1] = molecular target: T1, EGF-receptor-specific tyrosine protein kinase (EGF-R-PTK; EGF-R ICD) (Homo sapiens, UniProt P00533); assay: Inhibition of the EGF-receptor-specific tyrosine kinase (recombinant intracellular domain of the EGF receptor); assay type: biochemical
T1 construct: recombinant intracellular domain of the EGF receptor
Procedure: The compounds of formula I inhibit the enzyme activity in comparison with the control without inhibitor by 50% (IC50), for example in a concentration of from 0.001 to 20 μM, especially from 0.01 to 5 μM.
Inhibition of the EGF-receptor-specific Tyrosine Kinase
In accordance with the method mentioned above and using the recombinant intracellular domain of the EGF receptor (Europ. J. Biochem. 207, 265-275 (1992)), the following IC50 values are obtained: […]

v-abl kinase = v-abl kinase (Abelson murine leukemia virus, UniProt P00521); assay: Inhibition of the v-abl kinase ([Val5]-angiotensin II and [gamma-32P]-ATP as substrates); assay type: biochemical; conditions: v-abl tyrosine kinase
Procedure: The above-mentioned inhibition of the v-abl tyrosine kinase is determined in accordance with the methods of N. Lydon et at, Oncogene Research 5, 161-173 (1990) and J. F. Geissler et al., Cancer Research 52, 4492-4498 (1992), with [Val^5 ]-angiotensin II and [γ -^32 P]-ATP being used as substrates.
In accordance with the procedure mentioned above (Oncogene Research 5, 161-173 (1990) and Cancer Research 52, 4492-4498 (1992), the following IC50 values are obtained: […]

T1 sequence (P00533 669-1210 limits assumed): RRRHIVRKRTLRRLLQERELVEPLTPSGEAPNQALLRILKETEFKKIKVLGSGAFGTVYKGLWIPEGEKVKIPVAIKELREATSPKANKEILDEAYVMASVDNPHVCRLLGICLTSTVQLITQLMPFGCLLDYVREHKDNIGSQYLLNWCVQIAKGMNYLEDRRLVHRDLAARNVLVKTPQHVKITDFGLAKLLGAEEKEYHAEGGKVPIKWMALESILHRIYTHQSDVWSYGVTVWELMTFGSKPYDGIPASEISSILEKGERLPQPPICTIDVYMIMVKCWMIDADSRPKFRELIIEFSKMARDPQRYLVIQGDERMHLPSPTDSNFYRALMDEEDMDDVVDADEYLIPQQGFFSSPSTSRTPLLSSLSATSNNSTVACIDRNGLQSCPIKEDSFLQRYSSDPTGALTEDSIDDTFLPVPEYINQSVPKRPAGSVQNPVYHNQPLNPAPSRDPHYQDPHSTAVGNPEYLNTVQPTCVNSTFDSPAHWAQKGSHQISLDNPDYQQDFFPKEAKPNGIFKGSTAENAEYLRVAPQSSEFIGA
Sequence of v-abl kinase (P00521 whole entry): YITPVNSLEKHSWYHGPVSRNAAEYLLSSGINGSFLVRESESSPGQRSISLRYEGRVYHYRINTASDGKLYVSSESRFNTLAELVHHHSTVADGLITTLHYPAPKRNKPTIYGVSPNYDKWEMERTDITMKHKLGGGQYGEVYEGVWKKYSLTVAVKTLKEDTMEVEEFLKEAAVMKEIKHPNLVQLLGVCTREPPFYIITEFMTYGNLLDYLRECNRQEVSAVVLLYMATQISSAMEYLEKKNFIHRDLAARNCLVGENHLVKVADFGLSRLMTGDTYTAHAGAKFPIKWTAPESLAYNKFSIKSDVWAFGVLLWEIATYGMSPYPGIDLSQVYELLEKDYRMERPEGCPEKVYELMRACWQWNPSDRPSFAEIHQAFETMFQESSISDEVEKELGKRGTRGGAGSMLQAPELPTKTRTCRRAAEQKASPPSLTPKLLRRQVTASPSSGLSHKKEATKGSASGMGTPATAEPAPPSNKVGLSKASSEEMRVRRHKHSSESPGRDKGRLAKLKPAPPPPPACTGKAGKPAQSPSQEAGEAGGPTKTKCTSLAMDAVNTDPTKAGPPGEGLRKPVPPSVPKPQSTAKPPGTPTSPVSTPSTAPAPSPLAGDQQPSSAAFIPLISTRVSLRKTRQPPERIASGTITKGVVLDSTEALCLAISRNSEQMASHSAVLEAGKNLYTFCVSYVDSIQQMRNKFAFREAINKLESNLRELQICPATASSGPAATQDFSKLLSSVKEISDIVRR

## Nc1ccc(-c2cc3c(N4CCc5ccccc54)ncnc3[nH]2)cc1 [Example 7, 4-(2,3-Dihydroindol-1-yl)-6-(4-amino-phenyl)-7H-pyrrolo[2,3-d]pyrimidine]
BALB/MK cells
  IC50: 15800 nM
[1]
  IC50: 210 nM
v-abl kinase
  IC50: 78 nM

## Cc1[nH]c2ncnc(N3CCCc4ccccc43)c2c1C [Example 5, 4-(1,2,3,4-Tetrahydroquinolin-1-yl)-5,6-dimethyl-7H-pyrrolo[2,3-d]pyrimidine]
[1]
  IC50: 2690 nM

## Nc1ccc(-c2cc3c(N4CCCc5ccccc54)ncnc3[nH]2)cc1 [Example 11, 4-(1,2,3,4-Tetrahydroquinolin-1-yl)-6-(4amino-phenyl)-7H-pyrrolo[2.3-d]-pyrimidine]
BALB/MK cells
  IC50: 760 nM
[1]
  IC50: 26 nM
v-abl kinase
  IC50: 2 nM

## Cc1[nH]c2ncnc(N3CCc4ccccc43)c2c1C [Example 1, 4-(2,3-Dihydroindol-1-yl)-5,6-dimethyl-7H-pyrrolo[2,3-d]pyrimidine]
[1]
  IC50: 1560 nM
